Measured values published in paper PMC11866022, “Long-Chain Cyclic Arylguanidines as Multifunctional Serotonin Receptor Ligands with Antiproliferative Activity” (ACS Omega, 2025).

Experiments:
5-HT6 = target: T1, 5-HT6 (Homo sapiens, UniProt P50406); test: Functional cAMP assay (LANCE Ultra), 5-HT6; assay type: cell-based; conditions: Table 3, unit inferred, agonist mode
T1 construct: expressed in transfected cells; host or cells: HEK293

[1] = system: Feline catus astrocyte (PG-4); test: Cytotoxicity, PG-4 astrocytes; assay type: cell-based; conditions: Felis catus; normal astrocyte line
Description: (§1) The chosen group of ligands was further examined for their ability to inhibit proliferation across multiple cancer cell lines related to the CNS system (1321N1, U87MG, LN-229, and U-251). These cell lines were characterized by different mutation profiles, the main one being the variable status of the p53 protein. In detail, U87MG cells have a wild-type p53 protein, while astrocytoma and the rest of GBM cells harbor mutated p53 protein. Additional assays were performed on MCF7 breast cancer and AsPC-1 pancreatic cancer cells. The wide range of tested lines was aimed at screening the anticancer potential of the tested compounds. The first represents one of the most common and the second one of the most aggressive cancers in the world. Comparing the activity of compounds on GBM cells to other types of cancer may reveal their selectivity and usefulness in targeted therapies. The cytotoxicity of the compounds on normal human astrocytes (NHA) and Feline catus astrocyte (PG-4) was determined. Tests on normal lines serve to verify the potential toxicity of the tested compounds on healthy cells. Due to the targeting of CNS tumors, astrocytes were selected as normal lines.

CYP3A4 = target: T2, CYP3A4 (Homo sapiens, UniProt P08684); test: P450-Glo assay, CYP3A4; assay type: in vitro ADME
T2 construct: purchased Promega
Text: (§2) In order to evaluate excretion, we examined the effect on the activity of two cytochrome P-450 isoforms. Inhibition of their activity may lead to the occurrence of drug–drug interactions.

D2 = target: T3, D2 (Homo sapiens, UniProt P14416); test: Functional cAMP assay (LANCE Ultra), D2; assay type: cell-based; conditions: Table 3, unit inferred, antagonist mode, 10 nM dopamine
T3 construct: expressed in transfected cells; host or cells: HEK293
Description: (§3) Their functional activity was also evaluated by assessing their ability to inhibit agonist-induced cAMP production in HEK293 cells (Table 3). Extended radioisotope tests were aimed at detecting potential affinity for other aminergic receptors, whose role in cancer treatment may be important. Functions were tested for all receptors. The essence of functional tests results from the fact that serotonin stimulates tumor progression. Therefore, the ligand should have the potential to reduce its concentration, i.e., act as an antagonist.[39]
(§4) The detailed procedure is presented in previous publications.[53] The functional activity of the compounds was assessed using the LANCE Ultra cAMP detection kit (PerkinElmer). […] For other receptors (5-HT7R, 5-HT1AR, and 5-HT6R), 5-CT was used at 10, 100, and 1000 nM, respectively. Each compound was tested in triplicate across eight concentrations. The inhibitory constant (Kb) for each antagonist was calculated using the Cheng–Prusoff equation.

Danio rerio [2] = test: Fish embryo toxicity test (OECD 236); assay type: in vivo; conditions: Danio rerio embryos, 96 h of exposure
Description: Two compounds, PP 10 and PP 15, were tested for cardiotoxicity in the Danio rerio experimental model (OECD 236 test). […] To assess potential neurotoxic effects, locomotor activity was examined in the Danio rerio model. Zebrafish larvae’s response to light and dark transitions serves as a useful method for detecting neurotoxicity. […] In our experiment, we switched from light to dark conditions, as zebrafish larvae are known to avoid light and seek darker areas. This behavior helps them evade predators and maintain ideal environmental conditions.
Figure 4 A: Toxicity of PP 10 and PP 15in vivo in the Danio reiro embryo toxicity test. […] Cardiotoxicity of compounds B: PP 10 and C: PP 15 was evaluated by measuring the heart rate (beats per minute) in 5-dpf Danio rerio larvae, maintained in the E3 fish embryo growth medium. Statistical analysis was performed using GraphPad Prism 10.0.0, with one-way ANOVA followed by Dunnett’s comparison test (*p < 0.05, compared to the negative control E3).
The toxicity of compounds was evaluated using two tests: the fish embryo toxicity (FET) test and neurotoxicity assessment.[53] […] Acute toxicity was assessed by monitoring signs such as coagulation of fertilized eggs, somite formation absence, tailbud separation, and lack of heartbeat. The LD50 value was calculated, and cardiovascular effects were monitored through heartbeat observations.

Danio rerio [3] = conditions: in vivo
Description: Two compounds, PP 10 and PP 15, were tested for cardiotoxicity in the Danio rerio experimental model (OECD 236 test). […]. To assess potential neurotoxic effects, locomotor activity was examined in the Danio rerio model. Zebrafish larvae’s response to light and dark transitions serves as a useful method for detecting neurotoxicity. […] In our experiment, we switched from light to dark conditions, as zebrafish larvae are known to avoid light and seek darker areas. This behavior helps them evade predators and maintain ideal environmental conditions. […]
Figure 5 A: In vivo toxicity assessment of PP 10 and PP 15 in Danio rerio using the maximum tolerated concentration (MTC) toxicity test. B: Locomotor activity under light conditions, quantified as the distance (in cm) traveled per minute by 5-day postfertilization (dpf) Danio rerio larvae. C: Locomotor activity under dark conditions, with the distance (in cm) traveled per minute recorded for 5-dpf larvae. D: Comparison of activity during the transition from light to dark conditions. E3 refers to the fish embryo growth medium. […]
A locomotor activity test was conducted on zebrafish larvae ([…]). […] The distance traveled by the larvae was measured in both light and dark conditions using EthoVision XT15 software, and the mean distance per minute was calculated for each condition to assess locomotor activity. […]

CYP2D6 = target: T4, CYP2D6 (Homo sapiens, UniProt P10635); test: P450-Glo assay, CYP2D6; assay type: in vitro ADME
T4 construct: purchased Promega
Text: as §2

5-HT7 = target: T5, 5-HT7 (Homo sapiens, UniProt P34969); test: Functional cAMP assay (LANCE Ultra), 5-HT7; assay type: cell-based
T5 construct: expressed in transfected cells; host or cells: HEK293
Description: as §3, §4

[4] = system: HSA and AGP in a ratio 24:1; test: TRANSILXL PPB plasma protein binding assay; conditions: Figures S149, S150
cancer cell lines = test: Antiproliferative activity over the tested cancer cell lines; assay type: cell-based; conditions: Homo sapiens; range or bound over several cell lines
Description: as §1
The detailed procedure is presented in previous publications.[53] […] Cell viability was assessed using the MTS assay, and the inhibitory concentration (IC50) was calculated using GraphPad Prism 8.0. […]

T2 sequence (P08684 whole entry): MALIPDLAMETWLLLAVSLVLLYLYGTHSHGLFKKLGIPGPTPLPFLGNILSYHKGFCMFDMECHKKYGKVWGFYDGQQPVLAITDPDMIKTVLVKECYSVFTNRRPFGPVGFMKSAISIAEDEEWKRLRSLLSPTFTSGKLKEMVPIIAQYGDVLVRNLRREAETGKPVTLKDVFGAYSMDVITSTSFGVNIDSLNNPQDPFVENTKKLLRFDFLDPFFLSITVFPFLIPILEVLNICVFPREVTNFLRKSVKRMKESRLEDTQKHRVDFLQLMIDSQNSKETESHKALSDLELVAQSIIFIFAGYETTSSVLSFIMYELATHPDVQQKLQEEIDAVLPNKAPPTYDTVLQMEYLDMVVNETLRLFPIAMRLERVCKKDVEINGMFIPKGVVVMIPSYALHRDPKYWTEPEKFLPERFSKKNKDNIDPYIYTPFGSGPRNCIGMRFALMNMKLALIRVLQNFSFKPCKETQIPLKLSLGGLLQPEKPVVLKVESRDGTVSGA
T3 sequence (P14416 whole entry): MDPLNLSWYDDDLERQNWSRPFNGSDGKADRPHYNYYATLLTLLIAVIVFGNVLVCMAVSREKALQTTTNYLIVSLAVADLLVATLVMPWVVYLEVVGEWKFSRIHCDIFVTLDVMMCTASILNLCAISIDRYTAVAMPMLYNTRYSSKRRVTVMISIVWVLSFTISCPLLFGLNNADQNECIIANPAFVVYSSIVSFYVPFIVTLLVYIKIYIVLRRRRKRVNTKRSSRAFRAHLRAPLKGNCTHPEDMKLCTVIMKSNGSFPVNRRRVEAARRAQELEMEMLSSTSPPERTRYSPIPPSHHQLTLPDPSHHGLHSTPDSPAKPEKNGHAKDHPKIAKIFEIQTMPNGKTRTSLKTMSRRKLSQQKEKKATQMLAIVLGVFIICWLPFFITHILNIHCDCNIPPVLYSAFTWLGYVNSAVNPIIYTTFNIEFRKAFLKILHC
T5 sequence (P34969 whole entry, species assumed): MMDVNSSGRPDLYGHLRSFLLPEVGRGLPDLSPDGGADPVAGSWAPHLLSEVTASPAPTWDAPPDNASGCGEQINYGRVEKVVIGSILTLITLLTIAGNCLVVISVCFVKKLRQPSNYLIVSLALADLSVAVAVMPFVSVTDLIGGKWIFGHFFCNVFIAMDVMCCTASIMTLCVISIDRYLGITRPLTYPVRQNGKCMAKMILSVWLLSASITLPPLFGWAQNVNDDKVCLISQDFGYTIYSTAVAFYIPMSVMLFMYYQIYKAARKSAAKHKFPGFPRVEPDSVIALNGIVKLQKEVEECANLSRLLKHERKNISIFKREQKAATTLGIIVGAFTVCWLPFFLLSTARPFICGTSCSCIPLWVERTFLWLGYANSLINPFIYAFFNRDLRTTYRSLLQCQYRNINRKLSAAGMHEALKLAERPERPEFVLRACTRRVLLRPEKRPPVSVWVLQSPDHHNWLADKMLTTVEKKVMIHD
T4 sequence (P10635 whole entry): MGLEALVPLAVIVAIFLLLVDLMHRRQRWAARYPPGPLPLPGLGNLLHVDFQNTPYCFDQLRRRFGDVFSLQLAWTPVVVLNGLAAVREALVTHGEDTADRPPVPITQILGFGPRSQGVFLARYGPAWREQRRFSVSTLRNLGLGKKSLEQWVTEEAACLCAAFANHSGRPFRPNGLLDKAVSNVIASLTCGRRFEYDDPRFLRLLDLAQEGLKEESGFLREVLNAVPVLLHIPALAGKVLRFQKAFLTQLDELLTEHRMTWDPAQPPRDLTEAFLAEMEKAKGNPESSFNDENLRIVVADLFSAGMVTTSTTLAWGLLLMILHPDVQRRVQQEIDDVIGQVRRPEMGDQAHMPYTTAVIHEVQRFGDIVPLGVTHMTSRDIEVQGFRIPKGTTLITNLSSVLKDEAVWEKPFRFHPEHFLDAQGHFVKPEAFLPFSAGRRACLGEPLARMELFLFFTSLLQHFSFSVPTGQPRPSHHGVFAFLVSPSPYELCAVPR
T1 sequence (P50406 whole entry): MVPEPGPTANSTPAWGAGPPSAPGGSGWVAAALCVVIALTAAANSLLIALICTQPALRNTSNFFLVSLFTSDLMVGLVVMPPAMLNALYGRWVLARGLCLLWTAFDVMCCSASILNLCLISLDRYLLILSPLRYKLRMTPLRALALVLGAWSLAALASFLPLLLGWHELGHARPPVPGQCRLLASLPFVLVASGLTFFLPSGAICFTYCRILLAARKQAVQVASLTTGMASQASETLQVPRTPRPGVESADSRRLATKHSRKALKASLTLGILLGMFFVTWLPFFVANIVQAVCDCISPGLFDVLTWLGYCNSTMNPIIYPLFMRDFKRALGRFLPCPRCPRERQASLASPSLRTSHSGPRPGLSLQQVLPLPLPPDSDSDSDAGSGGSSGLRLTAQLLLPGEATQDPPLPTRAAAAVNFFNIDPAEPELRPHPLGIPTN

SMILES: O=S(=O)(c1cccc2ccccc12)N1CCN(CCNC2=Nc3ccccc3CN2)CC1 [PP 6, N-{2-[4-(Naphthalene-1-sulfonyl)piperazin-1-yl]ethyl}-3,4-dihydroquinazolin-2-amine]
- EC50 (5-HT6): 367 nM

SMILES: CC1NC(NCCCCCCNS(=O)(=O)c2cccc3ccccc23)=Nc2ccccc21 (stereo not shown) [PP 10, N-{6-[(4-Methyl-3,4-dihydroquinazolin-2-yl)amino]hexyl}naphthalene-1-sulfonamide]
- IC50 [1]: > 25000 nM
- impact on the activity of CYP3A4 (CYP3A4): weakest interaction
- Kb (D2): 1810 nM
- LD50 / LC50 (Figure 4) (Danio rerio [2]): 15.34 µg/mL
- neurotoxic effects (locomotor activity, light to dark) (Danio rerio [3]): minimal neurotoxic effects
- impact on the activity of CYP2D6 (CYP2D6): strong effect at a concentration of 1 μM
- Kb (5-HT7; Table 3, unit inferred, cAMP, antagonist mode, 5-CT): 236 nM
- function at 5-HT7 (5-HT7; in words): antagonist

SMILES: CC1NC(NCCCCCCNS(=O)(=O)c2c(Cl)ccc3ccccc23)=Nc2ccccc21 (stereo not shown) [PP 13, 2-Chloro-N-{6-[(4-methyl-3,4-dihydroquinazolin-2-yl)amino]hexyl}naphthalene-1-sulfonamide]
- amount remaining after incubation with human plasma proteins (UPLC) [4]: COMPOUND NOT DETECTED
- EC50 (5-HT6): 488 nM
- Kb (D2): 858 nM

SMILES: O=S(=O)(NCCCCCCNc1ncc2ccccc2n1)c1cccc2ccccc12 [PP 15, N-{6-[(Quinazolin-2-yl)amino]hexyl}naphthalene-1-sulfonamide]
- IC50 [1]: > 25000 nM
- impact on the activity of CYP3A4 (CYP3A4): passive
- LD50 / LC50 (Figure 4) (Danio rerio [2]): 2.147 µg/mL
- neurotoxic effects (locomotor activity, light to dark) (Danio rerio [3]): minimal neurotoxic effects
- impact on the activity of CYP2D6 (CYP2D6): passive

SMILES: O=S1(=O)c2cccc3cccc(c23)N1CCCCCCNC1=Nc2ccccc2CN1 [PP 24, 3-{6-[(3,4-Dihydroquinazolin-2-yl)amino]hexyl}-2λ^6-thia-3-azatricyclo[6.3.1.0^4,^12]dodeca-1(11),4(12),5,7,9-pentaene-2,2-dione]
- amount remaining after incubation with human plasma proteins (UPLC) [4]: COMPOUND NOT DETECTED
- IC50 (cancer cell lines): 7400 to 18300 nM
